Experiment: Two-component Cys-Cys stapling with divinyltriazine (DVT): double thia-Michael addition on recombinant StrepII-GB1-peptide-His8 fusions, stepwise linker addition (pseudo-dilution), DTT quench
Details: the molecule shown is the open-chain precursor, PBS + 200 mM imidazole (2 mM linker stock in DMSO added stepwise), 0.02 mM, scale: 1 = stapled product confirmed by ESI-MS as

StrepII-GB1-...GSDP-SSACSGFSTASGKKLNVSTEACQKAVKLFSDIENIS-DPGS...-His8 (free Cys thiols, + DVT)
ring closure, product found (66-membered ring): 1

StrepII-GB1-...GSDP-VNSSAFSGFSTASGKKLNVSTEALQKACKLFSDIECIS-DPGS...-His8 (free Cys thiols, + DVT)
ring closure, product found (36-membered ring): 1

StrepII-GB1-...GSDP-VNSSAFSGFSTASGKKLNVSCEALQKACKLFSDIENIS-DPGS...-His8 (free Cys thiols, + DVT)
ring closure, product found (33-membered ring): 1

StrepII-GB1-...GSDP-SCFSTASGKKLNVSCEALQKAVKLFSDIENIS-DPGS...-His8 (free Cys thiols, + DVT)
ring closure, product found (51-membered ring): 1

StrepII-GB1-...GSDP-ACGFSTASGKKLNVSCEALQKAVKLFSDIENIS-DPGS...-His8 (free Cys thiols, + DVT)
ring closure, product found (54-membered ring): 1

— paper PMC10699557, “A recombinant approach for stapled peptide discovery yields inhibitors of the RAD51 recombinase” (Chemical Science, 2023)
